Laboratory results reported in US20210278408A1, “METHODS OF TREATMENT OF CANCER WITH SUBSTITUTED PYRROLE AND PYRAZOLE COMPOUNDS AND DIAGNOSIS OF CANCERS SUSCEPTIBLE TO TREATMENT WITH SUBSTITUTED PYRROLE AND PYRAZOLE COMPOUNDS” (Bantam Pharmaceutical, LLC, priority 2018, published 2021).

Experiments:
[1] = tested on: BJAB (malignant human B-cell-line); assay: BJAB cell proliferation; assay type: cell-based; conditions: BJAB (malignant human B-cell-line) cell proliferation, EC50; read-out: BJAB
Autophagy = assay: High content imaging screen: autophagy (LC3 cleavage, autophagic granules); assay type: cell-based
Method: (§1) Mechanism of Action Screens A series of broad high content imaging, transcriptomic, metabolomic, and CRISPR KO screens were performed to link Compound A197 activity to a probable method of action. The outcome of these screens included two notable observations.

Kinase = assay: In vitro assays: kinase; assay type: biochemical; conditions: 63 kinase family members including Raf, MEK, ERK, AKT, CDK1-4
HDAC = assay: In vitro assays: HDAC; assay type: biochemical
Method: as §1

[2] = tested on: ATF4, ATF6, ERN1/XBP1 and cell cycle regulated genes; assay: mRNA expression profiling by QPCR in NHLF, HCT-116, HAP1 and SU-DHL-2; assay type: cell-based, human; conditions: 5 μM, 8 hrs
Method: FIG. 11 is a graph of expression of ATF4, ATF6, Xbp1, and cell cycle regulated genes in Compound A197 responsive cell lines. All cells were treated with 5 […] Compound A197 for 8 hrs, then RNA was isolated and specific gene expression determined by qPCR. All data are represented as Log2 Fc. *=p<0.05, n=3.
ATF4-mediated gene expression profile is induced by compounds. ATF4 activation is closely aligned with activation of ER stress and the related TF's ATF6, ERN1 and XBP1. To determine the role of each transcription factor, a set of fifteen genes were selected to evaluate the specificity of the response as related ATF4 and to other transcription factors. […] These genes can be regulated in a variety of ways and so reflect an outcome of compound action: cell cycle arrest.
Four cell lines were chosen for gene expression profiling. Normal Human Lung Fibroblasts were chosen as an example of a non-responsive cell line. The colorectal cancer cell line HCT-116 and the chronic myelogenous leukemia line HAP1 were chosen as examples of cell lines responsive to compound undergoing growth arrest. The diffuse large B-Cell lymphoma line SU-DHL-2 was chosen as a cell line undergoing growth arrest and apoptosis. […] RNA recovery is determined using a NanoDrop nucleic acid quantification device. […] The change in gene expression relative to vehicle is calculated using Expression Analysis software (ThermoFisher).

eIF2α phosphorylation = eIF2α phosphorylation in HCT-116 cells, Western blotting; assay type: cell-based, human; conditions: 5 μM, 30 minutes, 1, 2 or 4 hrs
Method: FIG. 12 is a set of graphs of Compound A197-induced phosphorylation of eIF2a. HCT-116 cells were treated with 5 μM Compound A197. eIF2α and p-eIF2α levels were determined by Western blotting. All data are mean±SD (n=3). *=p<0.05; #p<0.005.
The canonical pathway of ATF4 induction involves eIF2α phosphorylation. To determine the levels of levels of eIF2α and p-eIF2α were determined using Western blotting. HCT-116 cells (1.5×10^5 per well) were cultured in 12 well tissue culture plates and treated with 5 μM Compound A197 dissolved in McCoys complete medium with 10% FBS for 30 minutes, 1,2 or 4 hrs. Following treatment, media was removed, the cells were washed with PBS and then lysed following addition of RIPA lysis buffer. The cell lysate is then clarified by centrifugation at 14,000×g for 10 minutes. The clarified lysate protein levels are determined using BCA methodology. All lysates are diluted with RIPA buffer to give a final concentration of 200 μg/ml. As a control, HCT-116 cells were starved for essential amino acids (EAA), which increases eIF2α phosphorylation via EIF2AAK4 (GCN2). The HCT-116 cells were plated as above but the media was removed and replaced with Earls Balanced salt solution. All subsequent steps for lysate preparation were identical to those described above.

HCT-116 [3] = assay: Total cellular GSH levels (GSH-Glo): HCT-116; assay type: cell-based, human; conditions: 4 hrs, mean ± std. dev.
Method: (§2) NHLF, BJAB, SU-DHL-2, and HCT-116 cells were treated with Compound A197 for 4 hours prior to lysate harvest. Total cellular glutathione (GSH) levels were determined using a luminescent endpoint (GSH-Glo, Promega). Cell proliferation was determined using Cell-Titre Glo following 72 hours of compound treatment. All data shown is mean±SD of three biological replicates.

BJAB = assay: Cell proliferation, Cell-Titre Glo, 72 hours: BJAB; assay type: cell-based; conditions: Homo sapiens, mean ± std. dev.
Method: as §2

SU-DHL-2 = assay: Cell proliferation, Cell-Titre Glo, 72 hours: SU-DHL-2; assay type: cell-based; conditions: Homo sapiens, mean ± std. dev.
Method: as §2

HCT-116 [4] = assay: Apoptosis, 72 hr: HCT-116; assay type: cell-based, human

| SMILES | EC50 [1] [µM] | Outcome: Autophagy (Autophagy) | Outcome: Kinase (Kinase) | Outcome: HDAC (HDAC) | CDKN1A (p21/Waf1) mRNA expression [2] | induction of ATF4, ATF6 or IRE1/Xbp1 regulated genes ([2]; HCT-116, HAP-1, SU-DHL-2, NHLF) | eIF2α phosphorylation (eIF2α phosphorylation) | GSH % Max reduction (HCT-116 [3]) [%] | IC50 (HCT-116 [3]; Homo sapiens, read-out: GSH IC50 (Abs)) [µM] | IC50 (BJAB) [µM] | IC50 (SU-DHL-2) [µM] | Apoptosis, 72 hr (HCT-116 [4]) |
| --- | --- | --- | --- | --- | --- | --- | --- | --- | --- | --- | --- | --- |
| COC(=O)c1c(-c2cccc(F)c2)c(C)nn1-c1nc(C2=CCC(C(F)(F)F)CC2)c(SC(C)C)s1 (single isomer, unassigned) [Compound B19, methyl 4-(3-fluorophenyl)-1-(5-(isopropylthio)-4-(4-(trifluoromethyl)cyclohex-1-en-1-yl)thiazol-2-yl)-3-methyl-1H-pyrazole-5-carboxylate] | < 1 | – | – | – | – | – | – | – | – | – | – | – |
| Cc1nn(-c2nc(-c3ccc(C(F)(F)F)cc3)c(SC(C)C)s2)c(C(=O)O)c1-c1cccc(F)c1 [Compound A197, 4-(3-fluorophenyl)-1-(5-(isopropylthio)-4-(4-(trifluoromethyl)phenyl)thiazol-2-yl)-3-methyl-1H-pyrazole-5-carboxylic acid] | – | No detectable LC3 cleavage; no formation of | No activity on 63 kinase family members including Raf, | No activity on any HDAC | increased | preferentially induces ATF4, but not ATF6 or IRE1/Xbp1 regulated genes in three responsive tumor cell lines (HCT-116, HAP-1 and SU-DHL-2) but not in primary NHLF | Increased eIF2α phosphorylation within 30 minutes | 43 ± 9 | 0.36 ± 0.72 | 0.295 ± 0.11 | 0.18 ± 0.06 | No |
